In brackets after ≈: the same amount, converted by molar mass.

Drawing on ChEMBL document CHEMBL1127925, “Synthesis and in vitro antibacterial activity of new semi-synthetic noviosylcoumarin antibiotics: chemical modification at the C-3 ester” (1994), this text covers MIC for six compounds.

Common to all, as to type: functional
The subject of experiment [1] is Staphylococcus aureus. The experiment is described as follows: In vitro antibacterial activity against Staphylococcus aureus A9537 was determined.
Experiment [2] relates to Staphylococcus epidermidis. Briefly: In vitro antibacterial activity against Staphylococcus epidermidis A25441 was determined.
For experiment [3], the system named is Staphylococcus aureus. Briefly: In vitro antibacterial activity against Staphylococcus aureus A20700 was determined.

The MIC is the smallest concentration in the dilution series that meets the test's criterion for growth inhibition. A low value points to inhibition by little substance. Take `COC1C(OC(=O)c2ccc(C)s2)C(O)C(Oc2ccc3c(O)c(NC(=O)c4ccccc4)c(=O)oc3c2C)OC1(C)C` (stereo not drawn): the MIC in the experiment on Staphylococcus aureus [1] came to 0.03 µg/mL (≈ 0.0492 µM); in experiment [2], 8 µg/mL (≈ 13.1 µM); in the experiment on Staphylococcus aureus [3], 4 µg/mL (≈ 6.56 µM).

Take `COC1C(OC(=O)c2cccn2C)C(O)C(Oc2ccc3c(O)c(NC(=O)c4ccccc4)c(=O)oc3c2C)OC1(C)C` (stereo not drawn): the MIC against Staphylococcus aureus [1] is 2 µg/mL (≈ 3.37 µM); in experiment [2], 8 µg/mL (≈ 13.5 µM); with Staphylococcus aureus [3], 8 µg/mL (≈ 13.5 µM).

Regarding `COC1C(OC(=O)c2c(C)ncn2Cc2ccccc2)C(O)C(Oc2ccc3c(O)c(NC(=O)c4ccccc4)c(=O)oc3c2C)OC1(C)C` (stereo not drawn), the minimum inhibitory concentration (MIC) worked out at 8 µg/mL (≈ 11.7 µM) in the experiment with Staphylococcus aureus [1], 2 µg/mL (≈ 2.93 µM) in experiment [2] and 4 µg/mL (≈ 5.85 µM) against Staphylococcus aureus [3].

On to `COC1C(OC(=O)c2[nH]cnc2C)C(O)C(Oc2ccc3c(O)c(NC(=O)c4ccccc4)c(=O)oc3c2C)OC1(C)C.Cc1ccc(S(=O)(=O)O)cc1` (stereo not drawn), for which the MIC was found to be 16 µg/mL against Staphylococcus aureus [1], 8 µg/mL in experiment [2] and 16 µg/mL in the experiment with Staphylococcus aureus [3].

Turning to `COC1C(OC(=O)c2ccc(C)[nH]2)C(O)C(Oc2ccc3c(O)c(NC(=O)c4ccccc4)c(=O)oc3c2C)OC1(C)C` (stereo not drawn), the minimum inhibitory concentration (MIC) (in the experiment with Staphylococcus aureus [1]; in experiment [2]; in the experiment with Staphylococcus aureus [3]) was 0.13 µg/mL (≈ 0.219 µM) in each case.

For the compound `COC1C(OC(=O)c2ccco2)C(O)C(Oc2ccc3c(O)c(NC(=O)c4ccccc4)c(=O)oc3c2C)OC1(C)C` (stereo not drawn), the MIC (against Staphylococcus aureus [1]; in experiment [2]; against Staphylococcus aureus [3]) was 8 µg/mL (≈ 13.8 µM) each time.
